# According to article PMC3491871 (The Journal of biological chemistry, 2004):
# Tests used:
# trypanothione reductase [1] = target: T1, trypanothione reductase (Trypanosoma cruzi, UniProt P28593); experiment: crystal structure of the covalent adduct at […] Å; assay type: biochemical; details: read-out: Ki
# trypanothione reductase [2] = target: T1, trypanothione reductase; experiment: protection of oxidised enzyme from QM inactivation; assay type: biochemical
# T1 sequence (P28593 whole entry): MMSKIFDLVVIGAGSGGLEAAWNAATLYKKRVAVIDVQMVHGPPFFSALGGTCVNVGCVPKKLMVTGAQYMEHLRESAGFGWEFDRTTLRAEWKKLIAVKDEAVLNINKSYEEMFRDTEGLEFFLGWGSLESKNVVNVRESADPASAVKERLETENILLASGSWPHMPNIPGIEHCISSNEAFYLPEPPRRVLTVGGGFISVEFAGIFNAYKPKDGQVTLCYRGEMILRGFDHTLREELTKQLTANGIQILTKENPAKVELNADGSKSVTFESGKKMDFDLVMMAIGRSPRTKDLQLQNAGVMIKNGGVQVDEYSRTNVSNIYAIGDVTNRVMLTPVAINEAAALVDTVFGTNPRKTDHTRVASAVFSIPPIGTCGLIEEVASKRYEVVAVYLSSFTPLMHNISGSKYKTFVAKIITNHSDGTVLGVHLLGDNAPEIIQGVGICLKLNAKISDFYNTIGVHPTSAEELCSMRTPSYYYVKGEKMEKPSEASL
SMILES,KI (inactivation) (trypanothione reductase [1]) [µM],Ki (trypanothione reductase [2]) [µM]
"COc1ccc2nc3cc(Cl)ccc3c(NC(C)CCCN(CCCl)CCCl)c2c1 (racemic) [QM, quinacrine mustard]",41 ± 8,
CCN(CC)CCCC(C)Nc1c2ccc(Cl)cc2nc2ccc(OC)cc12 (centres unmarked) [quinacrine],,208 ± 45
